Columns and labels:
CHK1 = CHK1 (Homo sapiens (Human), UniProt O14757); test: CHK1 DELFIA assay as described in Collins et al., 2009a; assay type: biochemical
HT29 cells [1] = test: Cellular potency in Mitosis Inhibition Assay (MIA), checkpoint abrogation after etoposide; assay type: cell-based; conditions: versus Y-154
Experimental: Assay 2: Cellular Potency in Mitosis Inhibition Assay (MIA)
Checkpoint abrogation by CHK1 kinase function inhibitors in combination with genotoxic agents was assessed using a europium based ELISA assay designed to quantify the number of cells trapped in mitosis after treatment with a genotoxic agent (to induce G2 arrest) followed by a CHK1 inhibitor test compound in combination with nocodazole to abrogate this arrest. HT29 cells were seeded at 10^4 cells per well into 96-well plates in a volume of 160 μL and left to attach for 36 hours. […] After genotoxic drug exposure, the medium was removed and replaced with fresh medium (160 μL). […] CHK1 inhibitor test compounds were added in 40 μL aliquots using quadruplicate wells for each concentration. After 21 hours exposure, the medium was removed and cells were fixed in 4% formaldehyde in phosphate buffered saline (PBS, pH 7.4, pre-cooled to 4° C.) for 30 minutes at 4° C., followed by 100% methanol (pre-cooled to −20° C.) for 10 minutes at ambient temperature. Wells were washed with PBS and blocked with 5% dried milk (Marvel) in Tris-buffered saline (TBS, pH 7.4) at 37° C. for 30 minutes. Each well was washed three times with water containing 0.1% Tween 20. […] Primary antibody was removed and wells were washed with water containing 0.1% Tween 20. […] Europium emissions were counted on a Wallac, Victor2 counter (Perkin-Elmer, Bucks UK).

HT29 cells [2] = test: Selectivity in cells for CHK1-dependent checkpoint abrogation versus cytotoxicity (SRB IC50/MIA IC50); assay type: cell-based; conditions: SRB IC50/MIA IC50, both in HT29 cells
Experimental: Assay 3: Assessment of Selectivity in Cells for CHK1-Dependent Checkpoint Abrogation versus Cytotoxicity
Compound cytotoxicity was assessed using a 96 hour sulforhodamine B assay (SRB, Sigma catalog number S9012). HT29 or SW620 cells were seeded at 1.6 to 3.2×10^3 cells per well in 96-well plates in a volume of 160 μL medium and allowed to attach for 36 hours prior to treatment. […] Cells were incubated for 96 hours (four doublings) at 37° C. in a humidified 5% CO2 environment and then fixed and stained with SRB.
The Activity Index (AI), a measure of the selectivity of the CHK1 inhibitor test compounds for effecting CHK1-dependent checkpoint abrogation versus cytotoxicity was calculated from the ratio of the CHK1 inhibitor cytotoxicity IC50 versus the MIA IC50 (i.e., Al=CHK1 inhibitor SRB IC50/MIA IC50), both measured in HT29 cells.

HT29 cells [3] = test: Cellular efficacy in combination with SN38 (SRB potentiation); assay type: cell-based; conditions: SRB IC50/Potentiation IC50, 96 hour, SN38 at its IC50
Experimental: Assay 4: Cellular Efficacy in HT29 or SW620 Colon Carcinoma Cells in Combination with SN38 or Gemcitabine
HT29 or SW620 cells were seeded at 1.6 to 3.2×10^3 cells per well in 96-well plates in a volume of 160 μL medium and allowed to attach for 36 hours prior to treatment.
The Potentiation Index (PI) was calculated as a measure of the ability of the CHK1 inhibitor to enhance SN38 or gemcitabine cytotoxicity and was defined as the ratio of the Cytotoxicity IC50 of the CHK1 inhibitor alone versus the Potentiation IC50 of the CHK1 inhibitor combined with the genotoxic (i.e., PI=CHK1 inhibitor SRB IC50/Potentiation IC50).

in vivo = conditions: female Balb/c mice, 10 mg/kg iv and po
Experimental: Assay 5: Oral Bioavailability and Pharmacokinetics in Mice
All work was performed in accordance with the Home Office regulations under the Animals (Scientific Procedures) Act 1986 and according to UKCCCR guidelines for animal experimentation.
CHK1 inhibitor compounds were formulated in 10% DMSO, 1% Tween 20 and 89% sterile saline. Female Balb/c mice (Charles River UK Ltd, Margate, U.K.) were administered intravenously (iv) and orally (po) with 10 mg/kg of CHK1 inhibitor compound. Control animals received the vehicle alone. Groups of 3 mice were injected per timepoint. At 5, 15 and 30 minutes and 1, 2, 4, 6 and 24 hours after dosing, blood was collected by cardiac puncture with heparinised syringes from mice under anaesthesia (halothane/oxygen mix). Following centrifugation (9000×g, 2 minutes, 4° C.) plasma was frozen on dry ice and stored at −80° C. Tissues were excised, snap frozen in liquid nitrogen and stored at −80° C. Thawed plasma samples were extracted by protein precipitation using 3 volumes of methanol containing internal standard. […]. After centrifugation, supernatant was transferred for analysis. Extracted plasma samples were analysed by LC-MS-MS on an Agilent 1200 or 1290 LC coupled to an Agilent 6410 triple quadrupole mass spectrometer for the quantitation of the CHK1 inhibitor compound and internal standard. […]

Sequence of CHK1 (O14757 whole entry): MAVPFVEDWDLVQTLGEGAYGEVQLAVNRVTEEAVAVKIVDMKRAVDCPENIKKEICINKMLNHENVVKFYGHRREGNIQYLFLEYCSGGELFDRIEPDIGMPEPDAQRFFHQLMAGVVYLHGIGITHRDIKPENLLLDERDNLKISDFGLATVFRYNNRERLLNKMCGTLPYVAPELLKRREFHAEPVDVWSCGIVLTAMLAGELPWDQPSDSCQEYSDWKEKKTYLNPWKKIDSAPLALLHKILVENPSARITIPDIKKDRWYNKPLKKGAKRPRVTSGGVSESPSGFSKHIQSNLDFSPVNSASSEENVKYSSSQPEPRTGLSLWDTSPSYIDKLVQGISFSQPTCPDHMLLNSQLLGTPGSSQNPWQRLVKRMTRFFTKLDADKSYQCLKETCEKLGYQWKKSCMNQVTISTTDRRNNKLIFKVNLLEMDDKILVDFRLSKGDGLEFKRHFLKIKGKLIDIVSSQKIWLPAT

Row | Structure (SMILES) | IC50 (CHK1) [nM] | more potent than the next most potent compound (Y-154), MIA cellular potency (HT29 cells [1]) | Cellular Selectivity (Activity Index) (HT29 cells [2]) [fold] | Cell Efficacy + SN38 in HT29 cells (Potentiation Index) (HT29 cells [3]) [fold] | Oral Bioavailability in Mouse (in vivo) [%] | bioavailability (in vivo; female, Balb/c, mouse, in vivo, 10 mg/kg) [%]
1 | COCCCc1cnc(Nc2cnc(C#N)cn2)cc1NC[C@H]1CNCCO1 [Compound Y-159] | 23 | – | – | – | – | –
2 | N#Cc1cnc(Nc2cc(NC[C@@H]3CNCCO3)c(C(F)(F)F)cn2)cn1 [Compound 2, 5-[[4-[[(2S)-Morpholin-2-yl]methylamino]-5-(trifluoromethyl)-2-pyridyl]amino]pyrazine-2-carbonitrile] | – | ~5 fold | – | – | – | –
3 | COCCOc1ccc(-c2cnc(Nc3cnc(C#N)cn3)cc2NC[C@H]2CNCCO2)cc1 [Compound Y-157] | 15 | – | 6.3 | 2 | – | –
4 | COC(C)(C)C#Cc1cnc(Nc2cnc(C#N)cn2)cc1NC[C@@H]1CNCCO1 [Compound Y-155] | 5 | – | – | 0.9 | – | –
5 | N#Cc1cnc(Nc2cc(NCC3CNCCO3)c(C(=O)Nc3ccccc3)cn2)cn1 (stereo not shown) [Compound Y-102] | 20 | – | 4.6 | – | – | –
6 | COCc1ccc(-c2cnc(Nc3cnc(C#N)cn3)cc2NC[C@@H]2CNCCO2)cc1 [Compound Y-148] | 13 | – | 4.4 | – | – | –
7 | N#Cc1cnc(Nc2cc(NC[C@H]3CNCCO3)c(C(F)(F)F)cn2)cn1 [Compound 1, 5-[[4-[[(2R)-Morpholin-2-yl]methylamino]-5-(trifluoromethyl)-2-pyridyl]amino]pyrazine-2-carbonitrile] | – | approximately 3 fold | – | – | 105 | 100
8 | COCc1ccc(-c2cnc(Nc3cnc(C#N)cn3)cc2NC[C@H]2CNCCO2)cc1 [Compound Y-156] | 10 | – | 5.4 | 1.6 | – | –
9 | COCC#Cc1cnc(Nc2cnc(C#N)cn2)cc1NC[C@@H]1CNCCO1 [Compound Y-154] | 1 | – | 9.0 | 0.8 | – | –
10 | COCCOc1ccc(-c2cnc(Nc3cnc(C#N)cn3)cc2NC[C@@H]2CNCCO2)cc1 [Compound Y-149] | 10 | – | 3.5 | – | – | –

Reference: patent publication US9663503B2, “5-[[4-[[morpholin-2-yl]methylamino]-5-(trifluoromethyl)-2-pyridyl]amino]pyrazine-2-carbonitrile and therapeutic uses thereof” (priority 2012, dated 2017)
